PMC12300041, “Tricyclic Isatin Derivatives as Anti-Inflammatory Compounds with High Kinase Binding Affinity” (Molecules, 2025)

Experiments:
Experiment in all cases: KINOMEscan
Format in all cases: binding
MEK1 = biological target: T1, MEK1 (Homo sapiens, UniProt Q02750)
T1 construct: purchased Eurofins DiscoverX KINOMEscan
Method in brief: (§1)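 Active-site competition format. Unbound kinase fraction measured by affinity-ligand capture plus qPCR after 1 h at RT. Kd from 12-point half-log titration, maximum 33 μM.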

EPHA7 = biological target: T2, EPHA7 (Homo sapiens, UniProt Q15375)
T2 construct: purchased Eurofins DiscoverX KINOMEscan
Method in brief: as §1

CDKL3 = biological target: T3, CDKL3 (Homo sapiens, UniProt Q8IVW4)
T3 construct: purchased Eurofins DiscoverX KINOMEscan
Method in brief: as §1

ABL2 = biological target: T4, ABL2 (Homo sapiens, UniProt P42684)
T4 construct: purchased Eurofins DiscoverX KINOMEscan
Method in brief: as §1

PAK6 = biological target: T5, PAK6 (Homo sapiens, UniProt Q9NQU5)
T5 construct: purchased Eurofins DiscoverX KINOMEscan
T5 sequence (Q9NQU5 whole entry): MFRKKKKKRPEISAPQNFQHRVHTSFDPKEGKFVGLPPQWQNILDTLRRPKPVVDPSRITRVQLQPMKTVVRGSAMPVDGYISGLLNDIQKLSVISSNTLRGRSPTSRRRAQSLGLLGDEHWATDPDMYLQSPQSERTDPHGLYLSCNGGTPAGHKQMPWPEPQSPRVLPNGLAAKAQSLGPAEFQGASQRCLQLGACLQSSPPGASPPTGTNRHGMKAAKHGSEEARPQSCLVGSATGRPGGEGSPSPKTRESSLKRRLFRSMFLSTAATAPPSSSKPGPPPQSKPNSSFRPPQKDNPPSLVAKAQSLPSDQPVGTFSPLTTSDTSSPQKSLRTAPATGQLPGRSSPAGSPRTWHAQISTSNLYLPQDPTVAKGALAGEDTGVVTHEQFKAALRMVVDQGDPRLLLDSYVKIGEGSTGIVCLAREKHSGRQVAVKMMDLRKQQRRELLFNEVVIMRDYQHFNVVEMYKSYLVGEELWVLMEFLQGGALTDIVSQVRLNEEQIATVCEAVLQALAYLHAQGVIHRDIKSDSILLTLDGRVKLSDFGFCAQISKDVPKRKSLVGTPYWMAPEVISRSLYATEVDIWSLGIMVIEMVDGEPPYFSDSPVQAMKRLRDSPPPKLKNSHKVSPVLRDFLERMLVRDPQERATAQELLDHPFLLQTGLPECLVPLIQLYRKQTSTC
Method in brief: as §1

ACVR2A = biological target: T6, ACVR2A (Homo sapiens, UniProt P27037)
T6 construct: purchased Eurofins DiscoverX KINOMEscan
T6 sequence (P27037 20-513): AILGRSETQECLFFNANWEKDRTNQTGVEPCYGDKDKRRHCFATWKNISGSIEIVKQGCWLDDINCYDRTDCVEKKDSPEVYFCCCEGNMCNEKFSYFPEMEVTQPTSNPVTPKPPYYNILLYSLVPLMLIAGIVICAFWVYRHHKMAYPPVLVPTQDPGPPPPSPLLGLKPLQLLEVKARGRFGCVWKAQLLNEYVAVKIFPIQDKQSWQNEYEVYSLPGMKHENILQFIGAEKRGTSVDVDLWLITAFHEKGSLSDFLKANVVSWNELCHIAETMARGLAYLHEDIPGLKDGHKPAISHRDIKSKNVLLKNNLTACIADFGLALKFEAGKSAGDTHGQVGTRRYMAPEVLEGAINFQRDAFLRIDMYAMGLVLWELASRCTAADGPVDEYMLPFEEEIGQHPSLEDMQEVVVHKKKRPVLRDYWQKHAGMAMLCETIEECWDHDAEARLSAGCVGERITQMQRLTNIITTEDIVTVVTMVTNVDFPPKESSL
Method in brief: as §1

CAMKK1 = biological target: T7, CAMKK1 (Homo sapiens, UniProt Q8N5S9)
T7 construct: purchased Eurofins DiscoverX KINOMEscan
Method in brief: as §1

RET (V804L) = biological target: T8, RET (V804L) (Homo sapiens, UniProt P07949, V804L)
T8 construct: purchased Eurofins DiscoverX KINOMEscan
Method in brief: as §1

MARK1 = biological target: T9, MARK1 (Homo sapiens, UniProt Q9P0L2)
T9 construct: purchased Eurofins DiscoverX KINOMEscan
Method in brief: as §1

GRK7 = biological target: T10, GRK7 (Homo sapiens, UniProt Q8WTQ7)
T10 construct: purchased Eurofins DiscoverX KINOMEscan
Method in brief: as §1

CHEK1 = biological target: T11, CHEK1 (Homo sapiens, UniProt O14757)
T11 construct: purchased Eurofins DiscoverX KINOMEscan
Method in brief: as §1

PIK3CA (C420R) = biological target: T12, PIK3CA (C420R) (Homo sapiens, UniProt P42336, C420R)
T12 construct: purchased Eurofins DiscoverX KINOMEscan
T12 sequence (P42336 whole entry C420R): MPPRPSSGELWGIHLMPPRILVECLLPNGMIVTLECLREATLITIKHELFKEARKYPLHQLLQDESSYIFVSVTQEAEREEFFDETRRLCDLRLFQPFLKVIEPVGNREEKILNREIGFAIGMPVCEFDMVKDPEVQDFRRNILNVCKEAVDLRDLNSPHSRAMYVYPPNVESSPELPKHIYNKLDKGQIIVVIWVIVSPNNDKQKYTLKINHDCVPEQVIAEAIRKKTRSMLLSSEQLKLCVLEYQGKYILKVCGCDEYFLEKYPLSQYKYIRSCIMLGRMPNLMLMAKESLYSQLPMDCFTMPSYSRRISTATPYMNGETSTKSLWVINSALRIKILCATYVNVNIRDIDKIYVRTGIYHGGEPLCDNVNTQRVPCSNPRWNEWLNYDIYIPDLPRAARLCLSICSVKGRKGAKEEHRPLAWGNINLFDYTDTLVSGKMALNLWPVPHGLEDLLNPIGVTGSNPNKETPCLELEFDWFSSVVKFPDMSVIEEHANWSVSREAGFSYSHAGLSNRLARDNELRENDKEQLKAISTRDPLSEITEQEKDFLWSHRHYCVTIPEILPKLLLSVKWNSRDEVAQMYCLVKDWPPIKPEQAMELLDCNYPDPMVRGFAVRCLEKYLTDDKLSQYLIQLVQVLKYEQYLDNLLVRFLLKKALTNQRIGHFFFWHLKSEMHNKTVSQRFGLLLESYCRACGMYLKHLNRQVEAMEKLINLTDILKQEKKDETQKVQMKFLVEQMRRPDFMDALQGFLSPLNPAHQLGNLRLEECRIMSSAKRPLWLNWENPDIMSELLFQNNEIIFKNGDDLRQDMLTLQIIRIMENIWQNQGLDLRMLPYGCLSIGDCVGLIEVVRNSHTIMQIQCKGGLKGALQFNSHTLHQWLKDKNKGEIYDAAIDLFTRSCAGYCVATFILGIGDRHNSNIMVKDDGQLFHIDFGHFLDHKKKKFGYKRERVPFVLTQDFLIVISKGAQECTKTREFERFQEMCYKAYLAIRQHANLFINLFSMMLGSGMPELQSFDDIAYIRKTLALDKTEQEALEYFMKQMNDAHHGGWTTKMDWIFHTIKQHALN
Method in brief: as §1

AMPK-α1 = biological target: T13, AMPK-α1 (Homo sapiens, UniProt Q13131)
T13 construct: purchased Eurofins DiscoverX KINOMEscan
T13 sequence (Q13131 whole entry): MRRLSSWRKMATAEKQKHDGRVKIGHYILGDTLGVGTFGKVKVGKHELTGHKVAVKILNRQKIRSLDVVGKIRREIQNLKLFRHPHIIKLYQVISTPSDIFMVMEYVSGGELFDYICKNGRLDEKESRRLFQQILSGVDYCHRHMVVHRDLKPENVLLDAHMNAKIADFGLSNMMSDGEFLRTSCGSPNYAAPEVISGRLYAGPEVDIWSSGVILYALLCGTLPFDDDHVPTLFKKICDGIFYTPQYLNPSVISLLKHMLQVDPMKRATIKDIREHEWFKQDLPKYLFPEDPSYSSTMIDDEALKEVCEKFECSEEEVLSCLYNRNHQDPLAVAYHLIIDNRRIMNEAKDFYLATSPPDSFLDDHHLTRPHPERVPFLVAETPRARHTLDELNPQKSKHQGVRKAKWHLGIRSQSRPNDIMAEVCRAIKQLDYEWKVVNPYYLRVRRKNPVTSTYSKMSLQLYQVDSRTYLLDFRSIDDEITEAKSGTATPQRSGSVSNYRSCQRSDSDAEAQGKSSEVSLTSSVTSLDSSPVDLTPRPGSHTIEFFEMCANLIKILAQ
Method in brief: as §1

CDKL1 = biological target: T14, CDKL1 (Homo sapiens, UniProt Q00532)
T14 construct: purchased Eurofins DiscoverX KINOMEscan
Method in brief: as §1

MAPKAPK5 = biological target: T15, MAPKAPK5 (Homo sapiens, UniProt Q8IW41)
T15 construct: purchased Eurofins DiscoverX KINOMEscan
Method in brief: as §1

[1] = biological target: T16, RSK4 (Kin. Dom.1-N-term.) (Homo sapiens, UniProt Q9UK32)
T16 construct: RSK4 (Kin. Dom.1-N-term.); purchased Eurofins DiscoverX KINOMEscan
Method in brief: as §1

MAP4K5 = biological target: T17, MAP4K5 (Homo sapiens, UniProt Q9Y4K4)
T17 construct: purchased Eurofins DiscoverX KINOMEscan
Method in brief: as §1

INSRR = biological target: T18, INSRR (Homo sapiens, UniProt P14616)
T18 construct: purchased Eurofins DiscoverX KINOMEscan
Method in brief: as §1

[2] = biological target: T19, RSK4 (Kin. Dom.2-C-term.) (Homo sapiens, UniProt Q9UK32)
T19 construct: RSK4 (Kin. Dom.2-C-term.); purchased Eurofins DiscoverX KINOMEscan
Method in brief: as §1

MAP4K4 = biological target: T20, MAP4K4 (Homo sapiens, UniProt O95819)
T20 construct: purchased Eurofins DiscoverX KINOMEscan
Method in brief: as §1

ULK1 = biological target: T21, ULK1 (Homo sapiens, UniProt O75385)
T21 construct: purchased Eurofins DiscoverX KINOMEscan
Method in brief: as §1

[3] = biological target: T22, RPS6KA4 (Kin. Dom.1-N-term.) (Homo sapiens, UniProt O75676)
T22 construct: RPS6KA4 (Kin. Dom.1-N-term.); purchased Eurofins DiscoverX KINOMEscan
Method in brief: as §1

WNK4 = biological target: T23, WNK4 (Homo sapiens, UniProt Q96J92)
T23 construct: purchased Eurofins DiscoverX KINOMEscan
Method in brief: as §1

EGFR (G719S) = biological target: T24, EGFR (G719S) (Homo sapiens, UniProt P00533, G719S)
T24 construct: purchased Eurofins DiscoverX KINOMEscan
Method in brief: as §1

DRAK1 = biological target: T25, DRAK1 (Homo sapiens, UniProt Q9UEE5)
T25 construct: purchased Eurofins DiscoverX KINOMEscan
T25 sequence (Q9UEE5 whole entry): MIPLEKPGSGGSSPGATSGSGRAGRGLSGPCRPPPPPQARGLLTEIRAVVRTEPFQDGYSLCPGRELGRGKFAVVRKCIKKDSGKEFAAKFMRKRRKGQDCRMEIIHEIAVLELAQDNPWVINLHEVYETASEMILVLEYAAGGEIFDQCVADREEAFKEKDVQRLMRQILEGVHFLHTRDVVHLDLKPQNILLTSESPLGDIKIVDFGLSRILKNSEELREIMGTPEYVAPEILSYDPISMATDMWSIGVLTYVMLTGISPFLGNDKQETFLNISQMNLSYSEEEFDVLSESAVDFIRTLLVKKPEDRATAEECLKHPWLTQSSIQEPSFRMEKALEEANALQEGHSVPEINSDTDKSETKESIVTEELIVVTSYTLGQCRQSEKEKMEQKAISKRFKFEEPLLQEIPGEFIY
Method in brief: as §1

ABL1 (E255K)-P = biological target: T26, ABL1 (E255K)-P (Homo sapiens, UniProt P00519, E255K)
T26 construct: purchased Eurofins DiscoverX KINOMEscan
Method in brief: as §1

p38-σ = biological target: T27, p38-σ (Homo sapiens, UniProt O15264)
T27 construct: purchased Eurofins DiscoverX KINOMEscan
Method in brief: as §1

ALK (C1156Y) = biological target: T28, ALK (C1156Y) (Homo sapiens, UniProt Q9UM73, C1156Y)
T28 construct: purchased Eurofins DiscoverX KINOMEscan
T28 sequence (Q9UM73 19-1620 C1156Y): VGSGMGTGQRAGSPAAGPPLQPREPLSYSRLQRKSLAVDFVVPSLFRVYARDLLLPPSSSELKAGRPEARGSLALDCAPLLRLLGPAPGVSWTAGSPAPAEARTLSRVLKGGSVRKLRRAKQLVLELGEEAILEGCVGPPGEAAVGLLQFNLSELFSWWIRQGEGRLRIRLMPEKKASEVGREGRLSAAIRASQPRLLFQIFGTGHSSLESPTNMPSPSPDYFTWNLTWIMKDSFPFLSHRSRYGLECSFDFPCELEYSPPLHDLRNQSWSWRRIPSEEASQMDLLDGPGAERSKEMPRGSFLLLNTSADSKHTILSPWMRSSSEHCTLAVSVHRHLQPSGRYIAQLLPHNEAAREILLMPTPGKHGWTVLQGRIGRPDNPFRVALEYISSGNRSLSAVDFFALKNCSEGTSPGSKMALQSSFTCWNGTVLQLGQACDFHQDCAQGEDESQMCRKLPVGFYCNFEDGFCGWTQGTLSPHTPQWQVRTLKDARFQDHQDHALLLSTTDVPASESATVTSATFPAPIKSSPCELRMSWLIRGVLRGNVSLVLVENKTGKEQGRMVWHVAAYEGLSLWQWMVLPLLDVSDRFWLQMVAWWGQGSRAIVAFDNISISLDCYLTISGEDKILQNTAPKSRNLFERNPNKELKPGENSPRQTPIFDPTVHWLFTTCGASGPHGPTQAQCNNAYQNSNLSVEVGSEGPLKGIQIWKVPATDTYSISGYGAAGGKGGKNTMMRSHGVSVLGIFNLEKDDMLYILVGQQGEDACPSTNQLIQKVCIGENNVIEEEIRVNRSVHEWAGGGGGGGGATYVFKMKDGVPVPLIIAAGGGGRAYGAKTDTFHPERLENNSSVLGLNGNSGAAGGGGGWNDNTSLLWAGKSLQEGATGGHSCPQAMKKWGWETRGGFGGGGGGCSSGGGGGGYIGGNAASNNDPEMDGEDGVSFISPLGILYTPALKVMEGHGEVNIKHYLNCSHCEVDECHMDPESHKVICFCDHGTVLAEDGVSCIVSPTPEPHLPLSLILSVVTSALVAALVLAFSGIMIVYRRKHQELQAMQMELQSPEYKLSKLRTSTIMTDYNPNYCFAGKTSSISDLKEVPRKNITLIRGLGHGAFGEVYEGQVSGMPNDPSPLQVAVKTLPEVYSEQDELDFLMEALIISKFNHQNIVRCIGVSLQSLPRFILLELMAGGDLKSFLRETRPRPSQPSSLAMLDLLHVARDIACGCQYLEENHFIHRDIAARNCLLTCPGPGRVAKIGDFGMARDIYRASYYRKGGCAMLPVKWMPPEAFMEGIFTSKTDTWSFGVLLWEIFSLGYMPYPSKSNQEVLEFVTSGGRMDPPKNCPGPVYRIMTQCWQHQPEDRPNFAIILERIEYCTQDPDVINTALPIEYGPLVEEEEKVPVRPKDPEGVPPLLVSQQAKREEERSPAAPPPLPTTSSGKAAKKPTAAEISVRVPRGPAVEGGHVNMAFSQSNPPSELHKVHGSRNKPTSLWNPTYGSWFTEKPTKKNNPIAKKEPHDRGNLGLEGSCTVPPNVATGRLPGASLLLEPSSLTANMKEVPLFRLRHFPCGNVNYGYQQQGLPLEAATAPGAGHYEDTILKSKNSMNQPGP
Method in brief: as §1

IKK-ε = biological target: T29, IKK-ε (Homo sapiens, UniProt Q14164)
T29 construct: purchased Eurofins DiscoverX KINOMEscan
Method in brief: as §1

YANK3 = biological target: T30, YANK3 (Homo sapiens, UniProt Q86UX6)
T30 construct: purchased Eurofins DiscoverX KINOMEscan
Method in brief: as §1

ALK = biological target: T31, ALK (Homo sapiens, UniProt Q9UM73)
T31 construct: purchased Eurofins DiscoverX KINOMEscan
T31 sequence (Q9UM73 19-1620): as the sequence (Q9UM73 19-1620 C1156Y) above, with Y1138C counted along it
Method in brief: as §1

PRKR = biological target: T32, PRKR (Homo sapiens, UniProt P19525)
T32 construct: purchased Eurofins DiscoverX KINOMEscan
Method in brief: as §1

BRK = biological target: T33, BRK (Homo sapiens, UniProt Q13882)
T33 construct: purchased Eurofins DiscoverX KINOMEscan
Method in brief: as §1

OSR1 = biological target: T34, OSR1 (Homo sapiens, UniProt O95747)
T34 construct: purchased Eurofins DiscoverX KINOMEscan
Method in brief: as §1

TRKC = biological target: T35, TRKC (Homo sapiens, UniProt Q16288)
T35 construct: purchased Eurofins DiscoverX KINOMEscan
Method in brief: as §1

FLT3 (D835Y) = biological target: T36, FLT3 (D835Y) (Homo sapiens, UniProt P36888, D835Y)
T36 construct: purchased Eurofins DiscoverX KINOMEscan
Method in brief: as §1

STK39 = biological target: T37, STK39 (Homo sapiens, UniProt Q9UEW8)
T37 construct: purchased Eurofins DiscoverX KINOMEscan
Method in brief: as §1

PAK1 = biological target: T38, PAK1 (Homo sapiens, UniProt Q13153)
T38 construct: purchased Eurofins DiscoverX KINOMEscan
Method in brief: as §1

## O=C1Nc2c(cc([N+](=O)[O-])c3c2CCCC3)C1=NO [Compound 5d, 3-(Hydroxyimino)-5-nitro-1,3,6,7,8,9-hexahydro-2H-benzo[g]indol-2-one]
MEK1
  inhibition at 10 µM: 93.1%
EPHA7
  inhibition at 10 µM: 9%
CDKL3
  inhibition at 10 µM: 7%
ABL2
  inhibition at 10 µM: 2%
PAK6
  inhibition at 10 µM: 39%
ACVR2A
  inhibition at 10 µM: 10%
CAMKK1
  inhibition at 10 µM: 9%
RET (V804L)
  inhibition at 10 µM: 2%
MARK1
  inhibition at 10 µM: 24%
GRK7
  inhibition at 10 µM: 43%
CHEK1
  inhibition at 10 µM: 2%
PIK3CA (C420R)
  inhibition at 10 µM: 0%
AMPK-α1
  inhibition at 10 µM: 28%
CDKL1
  inhibition at 10 µM: 42%
MAPKAPK5
  inhibition at 10 µM: 2%
[1]
  inhibition at 10 µM: 77%
MAP4K5
  inhibition at 10 µM: 12%
INSRR
  inhibition at 10 µM: 4%
[2]
  inhibition at 10 µM: 36%
MAP4K4
  inhibition at 10 µM: 47%
ULK1
  inhibition at 10 µM: 15%
[3]
  inhibition at 10 µM: 26%
WNK4
  inhibition at 10 µM: 1%
EGFR (G719S)
  inhibition at 10 µM: 13%
DRAK1
  inhibition at 10 µM: 76%
ABL1 (E255K)-P
  inhibition at 10 µM: 57%
p38-σ
  inhibition at 10 µM: 7%
ALK (C1156Y)
  inhibition at 10 µM: 43%
IKK-ε
  inhibition at 10 µM: 23%
YANK3
  inhibition at 10 µM: 0%
ALK
  inhibition at 10 µM: 46%
PRKR
  inhibition at 10 µM: 6%
BRK
  inhibition at 10 µM: 0%
OSR1
  inhibition at 10 µM: 25%
TRKC
  inhibition at 10 µM: 31%
FLT3 (D835Y)
  inhibition at 10 µM: 54%
STK39
  inhibition at 10 µM: 53%
PAK1
  inhibition at 10 µM: 0%
